Values joined by “and” are separate entries in the source; they are usually repeats but may differ in a detail not shown here. Identical values can stand only once.
Columns and labels:
MDBK cells = assay: Rotenone-sensitive oxygen consumption rate in intact MDBK cells; assay type: cell-based, Bos taurus; design: key to rotenone sensitive OCR after 40 mins of biguanide exposure / rotenone sensitive OCR after 40 mins of biguanide exposure, average: % of OCR recorded immediately before biguanide addition; conditions: biguanide at IC50/10; for rotenone sensitive OCR after 6 hours of biguanide exposure, % control, average / rotenone sensitive OCR after 6 hours of biguanide exposure, average: MDBK cells; for rotenone sensitive OCR after 6 hours of biguanide exposure, average: OCR normalized to OCR immediately prior to biguanide addition; for rotenone sensitive OCR after 40 mins of biguanide exposure, % control, average / rotenone sensitive OCR after 40 mins of biguanide exposure, average / rotenone sensitive OCR after 40 mins of biguanide exposure / rotenone sensitive OCR after 40 mins of biguanide exposure, % control: MDBK intact cells; for rotenone sensitive OCR after 40 mins of biguanide exposure, % control, average / rotenone sensitive OCR after 40 mins of biguanide exposure, average: average of replicates; for rotenone sensitive OCR after 40 mins of biguanide exposure / rotenone sensitive OCR after 40 mins of biguanide exposure, % control: individual replicates
Description: (§1) 143B (CRL-8303 from ATCC), HepG2 (85011430 from The Health Protection Agency), and MDBK (CCL-22 from ATCC) cells were grown on Dulbecco’s modified Eagle’s medium (DMEM) supplemented with 10 % fetal bovine serum (FBS, Thermo Fisher Scientific) at 37 °C in 5 % CO2. All cells were confirmed as negative for mycoplasma.
(§2) Oxygen consumption rates (OCRs) were measured using a Seahorse XF96 extracellular flux analyzer at 37 °C. For intact cell measurements, 1.4 × 10^4 143B, HepG2, or MDBK cells were plated (per well) in DMEM containing 10 % FBS into Seahorse Bioscience Inc. XF96 plates and incubated for ~12 h at 37 °C in 5 % CO2. Then, the medium was exchanged for assay buffer containing DMEM, 4.5 g L^−1 glucose, 1 mM pyruvate, 32 mM NaCl, 2 mM GlutaMAX, 15 mg L^−1 phenol red, and 20 mM HEPES (pH 7.4 at 37 °C) and the cells placed in a CO2-free incubator at 37 °C for 30 min. Basal oxygen consumption rates were established before the addition of biguanides at one-tenth of their IC50 (IC50/10), and followed for ~ 6 h before the addition of rotenone (2 μM).
(§3) Rotenone-sensitive OCRs were calculated by subtracting the rotenone-insensitive rates (determined at the end of the experiment). OCRs were normalized by dividing by the OCR recorded immediately prior to the addition of biguanide. For rate of uptake calculations, the OCRs at time points after biguanide addition were divided by the OCRs at the same time points in control experiments. Data from wells with failed port injections were excluded from the analyses. The respiratory control ratio (RCR) values (state III versus state IV respiration) were ~11 and ~6 for permeabilized MDBK and 143B cells, respectively.

HepG2 cells = assay: Rotenone-sensitive oxygen consumption rate in intact HepG2 cells; assay type: cell-based, human; conditions: for rotenone sensitive OCR after 6 hours of biguanide exposure, % control, average / rotenone sensitive OCR after 6 hours of biguanide exposure, average: HEPG2 cells, biguanide at IC50/10; for rotenone sensitive OCR after 6 hours of biguanide exposure, average: OCR normalized to OCR immediately prior to biguanide addition
Description: as §1, §2, §3

permeabilized MDBK cells = assay: ADP-stimulated rotenone-sensitive OCR in permeabilized MDBK cells; assay type: cell-based, Bos taurus; design: rotenone sensitive OCR after ADP stimulation, average / rotenone sensitive OCR after ADP stimulation: unit not given here; conditions: MDBK permeabilised cells; for rotenone sensitive OCR after ADP stimulation, % of control, average / rotenone sensitive OCR after ADP stimulation, average: average of replicates; for rotenone sensitive OCR after ADP stimulation / rotenone sensitive OCR after ADP stimulation, % of control: individual replicates
Description: For permeabilized cell experiments, cells were seeded into XF96 plates at 0.9–1.1 × 10^4 per well and incubated for 48 h at 37 °C in 5 % CO2. Then, the growth medium was exchanged for assay buffer containing 3 nM plasma membrane permeabilizer ‘PMP’ (Seahorse Biosciences Inc.), 10 mM glutamate, 10 mM malate, 220 mM mannitol, 70 mM sucrose, 10 mM KH2PO4, 5 mM MgCl2, 1 mM EGTA, 0.2 % fatty acid-free bovine serum albumin (BSA), and 2 mM HEPES (pH 7.4 at 37 °C). […] The biguanides were allowed to accumulate for 30 min, then respiration was […] by the addition of 4 mM ADP. Rotenone was added (2 μM) at the end of the experiment.
as §3

rat liver mitochondria = assay: ADP-stimulated rotenone-sensitive OCR in isolated rat liver mitochondria; assay type: biochemical; design: rotenone sensitive OCR after ADP stimulation, individual replicates / rotenone sensitive OCR after ADP stimulation, average: unit not given here; conditions: for rotenone sensitive OCR after ADP stimulation, % of control, average / rotenone sensitive OCR after ADP stimulation, average: average of replicates; for rotenone sensitive OCR after ADP stimulation, % of control, individual replicates / rotenone sensitive OCR after ADP stimulation, individual replicates: replicate 1-5
Description: (§4) Complex I and mitochondrial membranes were prepared from Bos taurus (bovine) heart. Intact mitochondria were isolated from rat liver and mouse heart and liver. Membranes were prepared from mouse heart mitochondria by 5 s bursts of sonication at 4 °C and collected by centrifugation (75,000 × g, 1 h).
(§5) Isolated mitochondria were monitored using a Seahorse XF96 extracellular flux analyzer at 32 °C. Mouse heart mitochondria, and mouse and rat liver mitochondria were plated into XF96 plates at 4 and 16–20 μg per well, respectively, in 220 mM mannitol, 70 mM sucrose, 10 mM KH2PO4, 5 mM MgCl2, 1 mM EGTA, 0.2 % fatty acid-free BSA, and 2 mM HEPES (pH 7.4 at 37 °C) with 10 mM glutamate and 10 mM malate and adhered by centrifugation (2000 × g, 20 min, 4 °C). The medium was supplemented with a further 5 mM glutamate and 5 mM malate and the mitochondria incubated for 15 min. Then two baseline readings were taken before the biguanides were added at IC50/5. Biguanides were allowed to accumulate for 15–20 min before respiration was […] by the addition of 4 mM ADP. Rotenone (2 μM) was added at the end of the experiment. Data from wells with failed port injections were excluded from the analyses. The RCR values (state III versus state IV respiration) were 3.4, 4.8, and 4.6 for mouse heart, rat liver, and mouse liver, respectively.

mouse liver mitochondria = assay: ADP-stimulated rotenone-sensitive OCR in isolated mouse liver mitochondria; assay type: biochemical; design: rotenone sensitive OCR after ADP stimulation, individual replicates / rotenone sensitive OCR after ADP stimulation, average: unit not given here; conditions: for rotenone sensitive OCR after ADP stimulation, % of control, average / rotenone sensitive OCR after ADP stimulation, average: average of replicates; for rotenone sensitive OCR after ADP stimulation, % of control, individual replicates / rotenone sensitive OCR after ADP stimulation, individual replicates: replicate 1-5
Description: as §4, §5

Compound	rotenone sensitive OCR after 6 hours of biguanide exposure, % control, average (MDBK cells)	rotenone sensitive OCR after 6 hours of biguanide exposure, average (MDBK cells)	rotenone sensitive OCR after 40 mins of biguanide exposure, % control, average (MDBK cells)	rotenone sensitive OCR after 40 mins of biguanide exposure, average (MDBK cells)	rotenone sensitive OCR after 40 mins of biguanide exposure (MDBK cells)	rotenone sensitive OCR after 40 mins of biguanide exposure, % control (MDBK cells)	rotenone sensitive OCR after 6 hours of biguanide exposure, % control, average (HepG2 cells)	rotenone sensitive OCR after 6 hours of biguanide exposure, average (HepG2 cells)	rotenone sensitive OCR after ADP stimulation, % of control, average (permeabilized MDBK cells)	rotenone sensitive OCR after ADP stimulation, average (permeabilized MDBK cells)	rotenone sensitive OCR after ADP stimulation, % of control, average (permeabilized MDBK cells; biguanide at IC50/5)	rotenone sensitive OCR after ADP stimulation, average (permeabilized MDBK cells; biguanide at IC50/5)	rotenone sensitive OCR after ADP stimulation (permeabilized MDBK cells; biguanide at IC50/5)	rotenone sensitive OCR after ADP stimulation, % of control (permeabilized MDBK cells; biguanide at IC50/5)	rotenone sensitive OCR after ADP stimulation, % of control, average (rat liver mitochondria)	rotenone sensitive OCR after ADP stimulation, average (rat liver mitochondria)	rotenone sensitive OCR after ADP stimulation, % of control, individual replicates (rat liver mitochondria)	rotenone sensitive OCR after ADP stimulation, individual replicates (rat liver mitochondria)	rotenone sensitive OCR after ADP stimulation, % of control, average (mouse liver mitochondria)	rotenone sensitive OCR after ADP stimulation, average (mouse liver mitochondria)	further results
CC(C)N=C(N)N=C(N)NC(C)C [compound 5, N-(propan-2-yl)-1-3-(propan-2-yl)carbamimidamidomethanimidamide]	95.30 % control	95.59	97.92 % control	99.64	98.03 and 101.32 and 101.34 and 98.05 and 98.68 and 101.35 and 98.70	96.34 % control and 99.57 % control and 99.60 % control and 96.36 % control and 96.98 % control and 99.61 % control and 97.00 % control	88.37 % control	91.14	94.54 % of control	266.44	94.54 % of control	266.44	341.66 and 308.83 and 224.55 and 216.86 and 280.18 and 213.17 and 210.97 and 335.32	121.23 % of control and 109.59 % of control and 79.68 % of control and 76.95 % of control and 99.42 % of control and 75.64 % of control and 74.86 % of control and 118.98 % of control	92.45 % of control	25.35	107.71 % of control and 88.69 % of control and 80.94 % of control	29.53 and 24.32 and 22.19	82.72 % of control	28.70	inhibition of rotenone-sensitive respiration (in words) (HepG2 cells; intact HepG2 cells, biguanide at IC50/10, monitored for 6 h): do not; rotenone sensitive OCR after ADP stimulation, % of control, individual replicates (mouse liver mitochondria): 96.11 % of control and 71.97 % of control and 77.63 % of control and 85.15 % of control; rotenone sensitive OCR after ADP stimulation, individual replicates (mouse liver mitochondria): 33.35 and 24.97 and 26.94 and 29.54
[H]/N=C(/N)N/C(=N/[H])NCCc1ccccc1 [phenformin, reference compound]	42.78 % control	42.91	95.24 % control	96.91	97.35 and 95.76 and 94.48 and 101.29 and 95.15 and 97.44	95.67 % control and 94.11 % control and 92.85 % control and 99.55 % control and 93.51 % control and 95.76 % control	1.73 % control	1.79	14.11 % of control	39.76	14.11 % of control	39.76	45.64 and 68.90 and 0.07 and 37.54 and 39.83 and 25.16 and 62.96 and 38.03	16.19 % of control and 24.45 % of control and 0.025 % of control and 13.32 % of control and 14.13 % of control and 8.93 % of control and 22.34 % of control and 13.49 % of control	22.17 % of control	6.08	23.43 % of control and 20.89 % of control and 22.08 % of control and 22.26 % of control	6.42 and 5.73 and 6.05 and 6.10	29.95 % of control	10.39	rotenone sensitive OCR after ADP stimulation, % of control, individual replicates (mouse liver mitochondria): 29.69 % of control and 34.49 % of control and 19.77 % of control and 35.85 % of control; rotenone sensitive OCR after ADP stimulation, individual replicates (mouse liver mitochondria): 10.30 and 11.97 and 6.86 and 12.44
[H]/N=C(\N/C(=N/[H])Nc1ccc(Cl)cc1)NC(C)C [proguanil, reference compound]	89.87 % control	90.15	96.96 % control	98.65	102.33 and 100.74 (2×) and 97.32 and 96.18 and 94.63	100.56 % control and 99.00 % control and 99.01 % control and 95.64 % control and 94.52 % control and 93.00 % control	93.06 % control	95.98	105.17 % of control	296.39	105.17 % of control	296.39	272.71 and 215.77 and 253.06 and 330.67 and 409.72	96.77 % of control and 76.56 % of control and 89.79 % of control and 117.34 % of control and 145.38 % of control	91.40 % of control	25.06	82.64 % of control and 94.24 % of control and 97.33 % of control	22.66 and 25.84 and 26.69	89.71 % of control	31.13	rotenone sensitive OCR after ADP stimulation, % of control, individual replicates (mouse liver mitochondria): 103.28 % of control and 81.19 % of control and 80.15 % of control and 94.21 % of control; rotenone sensitive OCR after ADP stimulation, individual replicates (mouse liver mitochondria): 35.84 and 28.17 and 27.81 and 32.69

Source: article PMC4977651, “Molecular features of biguanides required for targeting of mitochondrial respiratory complex I and activation of AMP-kinase” (BMC Biology, 2016)
